Measured values taken from ChEMBL document CHEMBL3885861, “Open TG-GATES”.

Organism: Rattus norvegicus
Assay: Open TG-GATES - Regimen: Single
Assay type: toxicity, organism-based, Sprague-Dawley
Design: regimen Single, gender Male, age 6 weeks
Conditions: in vivo, po, route gavage; for TP / gamma-GTP / ALP / ALT / AST / BUN / CRE / DBIL / GLC / K / LDH / Na / PL / RALB / TBIL / TC / TG: tissue Plasma; for APTT / Bas / Eos / Fbg / Hb / Ht / Lym / MCHC / MCV / Mono / PT / Plat / RBC / Ret / WBC: tissue Blood; for KIDNEY_L / KIDNEY_R / KIDNEY_TOTAL: tissue Kidney; for LIVER: tissue Liver
[1] = 0 mg/kg, 24 h, dose level Control
[2] = 600 mg/kg, 24 h, dose level Low

## O=C1NC(=O)C(c2ccccc2)(c2ccccc2)N1 [PHENYTOIN]
[1]
  TP: 5.6 g/dL
  gamma-GTP: 1 IU/L
600 mg/kg, 3 h, dose level Low
  TERMINAL_BW: 210.6 g
  APTT: 16.8 s
  Bas: 0.2%
  Eos: 0.8%
  Fbg: 264.8 mg/dL
  Hb: 13.1 g/dL
  Ht: 39.2%
  Lym: 79%
  MCHC: 33.5%
  MCV: 62.3 fL
  Mono: 2.4%
  PT: 14 s
  Plat: 116 x10_4/uL
  RBC: 629.4 x10_4/ul
  Ret: 8%
  KIDNEY_L: 0.9 g
  KIDNEY_R: 1 g
  KIDNEY_TOTAL: 1.9 g
  LIVER: 8.8 g
  ALP: 1512 IU/L
  ALT: 36.4 IU/L
  AST: 78.6 IU/L
  BUN: 10 mg/dL
  CRE: 0.2 mg/dL
  DBIL: 0.012 mg/dL
  GLC: 186.6 mg/dL
  K: 3.9 meq/L
  LDH: 113.2 IU/L
  Na: 141.8 meq/L
  PL: 143.4 mg/dL
  RALB: 2.5 g/dL
  TBIL: 0.052 mg/dL
  TC: 82 mg/dL
  TG: 36.2 mg/dL
  TP: 5.4 g/dL
  gamma-GTP: 1.2 IU/L
600 mg/kg, 6 h, dose level Low
  TERMINAL_BW: 208.2 g
  APTT: 18.6 s
  Bas: 0.4%
  Eos: 0.8%
  Fbg: 274.8 mg/dL
  Hb: 13 g/dL
  Ht: 38.2%
  Lym: 77.6%
  MCHC: 33.9%
  MCV: 61 fL
  Mono: 2.6%
  PT: 14.3 s
  RBC: 626.4 x10_4/ul
  Ret: 7.9%
  WBC: 89.4 x10_2/uL
  KIDNEY_L: 1 g
  KIDNEY_R: 0.9 g
  KIDNEY_TOTAL: 1.9 g
  LIVER: 8.7 g
  ALP: 1510.8 IU/L
  ALT: 30.8 IU/L
  AST: 71.8 IU/L
  BUN: 8.6 mg/dL
  CRE: 0.2 mg/dL
  DBIL: 0.01 mg/dL
  GLC: 181.8 mg/dL
  K: 4.2 meq/L
  LDH: 89 IU/L
  Na: 142.8 meq/L
  PL: 135.6 mg/dL
  RALB: 2.5 g/dL
  TBIL: 0.052 mg/dL
  TC: 74.8 mg/dL
  TG: 26 mg/dL
  TP: 5.3 g/dL
  gamma-GTP: 1.4 IU/L
600 mg/kg, 9 h, dose level Low
  TERMINAL_BW: 206.7 g
  APTT: 16 s
  Bas: 0.2%
  Eos: 1%
  Fbg: 288.8 mg/dL
  Hb: 13.3 g/dL
  Ht: 39.5%
  Lym: 73.6%
  MCHC: 33.7%
  MCV: 60.6 fL
  Mono: 2.4%
  PT: 14.3 s
  Plat: 109.6 x10_4/uL
  RBC: 653.4 x10_4/ul
  Ret: 7.3%
  WBC: 74.9 x10_2/uL
  KIDNEY_L: 0.9 g
  KIDNEY_R: 0.9 g
  KIDNEY_TOTAL: 1.8 g
  LIVER: 7.7 g
  ALP: 1491.4 IU/L
  ALT: 29.6 IU/L
  AST: 72.4 IU/L
  BUN: 8.2 mg/dL
  CRE: 0.2 mg/dL
  DBIL: 0.016 mg/dL
  GLC: 186 mg/dL
  K: 4 meq/L
  LDH: 80.8 IU/L
  Na: 141.2 meq/L
  PL: 125.8 mg/dL
  RALB: 2.5 g/dL
  TBIL: 0.064 mg/dL
  TC: 69.6 mg/dL
  TG: 18 mg/dL
  TP: 5.4 g/dL
  gamma-GTP: 1 IU/L
[2]
  TERMINAL_BW: 217.3 g
  APTT: 16.9 s
  Bas: 0.2%
  Eos: 1.2%
  Fbg: 286 mg/dL
  Hb: 13.7 g/dL
  Ht: 40.1%
  Lym: 78.4%
  MCHC: 34.2%
  MCV: 62.9 fL
  Mono: 2.4%
  PT: 14.5 s
  Plat: 120.7 x10_4/uL
  RBC: 637.4 x10_4/ul
  Ret: 7.3%
  WBC: 101.8 x10_2/uL
  KIDNEY_L: 1 g
  KIDNEY_R: 1 g
  KIDNEY_TOTAL: 1.9 g
  LIVER: 9.7 g
  ALP: 1621 IU/L
  ALT: 34.6 IU/L
  AST: 67.6 IU/L
  BUN: 14 mg/dL
  CRE: 0.2 mg/dL
  DBIL: 0.022 mg/dL
  GLC: 177.6 mg/dL
  K: 4.4 meq/L
  LDH: 123.6 IU/L
  Na: 141.6 meq/L
  PL: 143 mg/dL
  RALB: 2.6 g/dL
  TBIL: 0.04 mg/dL
  TC: 75.4 mg/dL
  TG: 95.8 mg/dL
  TP: 5.6 g/dL
